Data published in PubChem BioAssay AID248 (DTP/NCI, 2004).
“And” between values parts separate entries of the source, which are not always exact repeats. Equal values may be shown once. Toxic doses and inconclusive results are not listed. Rule as the data show it: active = T/C of 150% or more; inactive = T/C below 125%.

Test system: L1210 leukemia ip in BDF1 mice, survival T/C
Assay: NCI In Vivo Anticancer Drug Screen. Data for tumor model L1210 Leukemia (intraperitoneal) in B6D2F1 (BDF1) mice
Details: endpoint: mean survival time, higher = longer survival
How it was run: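 Each compound was tested against a transplantable tumor grown in mice. The endpoint was survival, with treated animals benchmarked against vehicle controls as a simple ratio.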

[1] = dose: 100.0 mg/kg/injection, schedule: Q01DX009 (ip), vehicle: saline with Tween-80
[2] = dose: 100.0 mg/kg/injection, schedule: Q04DX003 (ip), vehicle: Klucel (hydroxypropylcellulose) (HPC)
[3] = dose: 200.0 mg/kg/injection, schedule: Q01DX009 (ip), vehicle: saline with Tween-80
[4] = dose: 200.0 mg/kg/injection, schedule: Q04DX003 (ip), vehicle: Klucel (hydroxypropylcellulose) (HPC)
[5] = dose: 400.0 mg/kg/injection, schedule: Q04DX003 (ip), vehicle: Klucel (hydroxypropylcellulose) (HPC)
[6] = dose: 100.0 mg/kg/injection, schedule: Q01DX001 (ip), vehicle: Klucel (hydroxypropylcellulose) (HPC)
[7] = dose: 200.0 mg/kg/injection, schedule: Q01DX001 (ip), vehicle: Klucel (hydroxypropylcellulose) (HPC)
[8] = dose: 100.0 mg/kg/injection, schedule: Q04DX003 (ip), vehicle: saline with Tween-80
[9] = dose: 200.0 mg/kg/injection, schedule: Q04DX003 (ip), vehicle: saline with Tween-80
[10] = dose: 100.0 mg/kg/injection, schedule: Q01DX009 (ip), vehicle: Klucel (hydroxypropylcellulose) (HPC)
[11] = dose: 200.0 mg/kg/injection, schedule: Q01DX009 (ip), vehicle: Klucel (hydroxypropylcellulose) (HPC)

Measured: T/C

CCNc1nc(Cl)nc(NCC)n1
inactive: dose: 100.0 mg/kg/injection, schedule: Q01DX009 (ip), vehicle: saline sonified 98 % of control | [1] 95 % of control | [2] 94 % of control and 103 % of control | dose: 200.0 mg/kg/injection, schedule: Q01DX009 (ip), vehicle: saline sonified 98 % of control | [3] 94 % of control | [4] 94 % of control and 103 % of control | dose: 400.0 mg/kg/injection, schedule: Q01DX009 (ip), vehicle: saline sonified 96 % of control | dose: 400.0 mg/kg/injection, schedule: Q01DX009 (ip), vehicle: saline with Tween-80 100 % of control | [5] 102 % of control and 103 % of control

O=C1S/C(=C/c2ccccc2)C(=O)N1c1ccccc1
inactive: [6] 98 % of control | [7] 90 % of control | dose: 400.0 mg/kg/injection, schedule: Q01DX001 (ip), vehicle: Klucel (hydroxypropylcellulose) (HPC) 94 % of control

Nc1ncnc2c1ncn2C1OC(CO)C(NC(=S)SCc2ccccc2)C1O (stereo not drawn)
inactive: dose: 75.0 mg/kg/injection, schedule: Q01DX001 (ip), vehicle: saline 101 % of control | dose: 150.0 mg/kg/injection, schedule: Q01DX001 (ip), vehicle: saline 87 % of control | dose: 300.0 mg/kg/injection, schedule: Q01DX001 (ip), vehicle: saline 101 % of control

COC(=O)C(O)c1ccc2c(c1)OCO2 (stereo not drawn)
inactive: dose: 100.0 mg/kg/injection, schedule: Q04DX003 (ip), vehicle: saline sonified 97 % of control | dose: 200.0 mg/kg/injection, schedule: Q04DX003 (ip), vehicle: saline sonified 97 % of control | dose: 400.0 mg/kg/injection, schedule: Q04DX003 (ip), vehicle: saline sonified 93 % of control

Cc1ccc(-n2c(O)c(N=Nc3ccccc3C)c(=O)n(-c3ccc(Cl)cc3)c2=S)cc1
inactive: dose: 50.0 mg/kg/injection, schedule: Q01DX001 (ip), vehicle: Klucel (hydroxypropylcellulose) (HPC) 104 % of control | [6] 102 % of control | [7] 102 % of control

CC1(C)C(C#N)C(=O)N(Cc2ccccc2)C(=O)C1C#N (stereo not drawn)
inactive: [8] 101 % of control | [9] 93 % of control

CC(=O)Nc1cc(C(=O)O)cc(NC(C)=O)c1C
inactive: [8] 103 % of control | [9] 98 % of control | dose: 400.0 mg/kg/injection, schedule: Q04DX003 (ip), vehicle: saline with Tween-80 101 % of control

O=C1NC(=O)c2c(Cl)c(Cl)c(Cl)c(Cl)c21
inactive: dose: 25.0 mg/kg/injection, schedule: Q04DX003 (ip), vehicle: saline 95 % of control | dose: 50.0 mg/kg/injection, schedule: Q04DX003 (ip), vehicle: saline 106 % of control | dose: 100.0 mg/kg/injection, schedule: Q04DX003 (ip), vehicle: saline 92 % of control and 93 % of control | dose: 200.0 mg/kg/injection, schedule: Q04DX003 (ip), vehicle: saline 98 % of control | dose: 400.0 mg/kg/injection, schedule: Q04DX003 (ip), vehicle: saline 111 % of control

C/C(=N\NC(N)=O)C1=C(O)C(C(C)C)NC1=O (stereo not drawn)
inactive: dose: 50.0 mg/kg/injection, schedule: Q01DX001 (ip), vehicle: carboxymethylcellulose (CMC) 101 % of control | dose: 100.0 mg/kg/injection, schedule: Q01DX001 (ip), vehicle: carboxymethylcellulose (CMC) 106 % of control | dose: 200.0 mg/kg/injection, schedule: Q01DX001 (ip), vehicle: carboxymethylcellulose (CMC) 103 % of control | dose: 400.0 mg/kg/injection, schedule: Q01DX001 (ip), vehicle: carboxymethylcellulose (CMC) 109 % of control

CC(=O)OC(C(=O)O)C(OC(C)=O)C(=O)NCCO (stereo not drawn)
inactive: dose: 100.0 mg/kg/injection, schedule: Q01DX001 (ip), vehicle: water 94 % of control | dose: 100.0 mg/kg/injection, schedule: Q04DX003 (ip), vehicle: water 87 % of control | dose: 200.0 mg/kg/injection, schedule: Q01DX001 (ip), vehicle: water 96 % of control | dose: 200.0 mg/kg/injection, schedule: Q04DX003 (ip), vehicle: water 95 % of control | dose: 400.0 mg/kg/injection, schedule: Q01DX001 (ip), vehicle: water 94 % of control | dose: 400.0 mg/kg/injection, schedule: Q04DX003 (ip), vehicle: water 97 % of control

CN(C)C(=O)c1ccccc1Cl
inactive: dose: 100.0 mg/kg/injection, schedule: Q04DX003 (ip), vehicle: acetone 92 % of control | dose: 200.0 mg/kg/injection, schedule: Q04DX003 (ip), vehicle: acetone 94 % of control | dose: 400.0 mg/kg/injection, schedule: Q04DX003 (ip), vehicle: acetone 105 % of control

CCCCCCCCc1ccc(C(C)=O)cc1
inactive: [10] 94 % of control | [2] 102 % of control | [11] 96 % of control | [4] 100 % of control | dose: 400.0 mg/kg/injection, schedule: Q01DX009 (ip), vehicle: Klucel (hydroxypropylcellulose) (HPC) 86 % of control | [5] 107 % of control

COc1ccc(NC(=S)NC2CCCCC2)cc1
inactive: dose: 100.0 mg/kg/injection, schedule: Q04DX003 (ip), vehicle: other 94 % of control | dose: 200.0 mg/kg/injection, schedule: Q04DX003 (ip), vehicle: other 88 % of control | dose: 400.0 mg/kg/injection, schedule: Q04DX003 (ip), vehicle: other 90 % of control

CCn1cc(C(=O)O)c(=O)c2cccc(Cl)c21
inactive: dose: 25.0 mg/kg/injection, schedule: Q04DX002 (ip), vehicle: saline 100 % of control | dose: 50.0 mg/kg/injection, schedule: Q04DX002 (ip), vehicle: saline 107 % of control | dose: 100.0 mg/kg/injection, schedule: Q04DX002 (ip), vehicle: saline 107 % of control | dose: 200.0 mg/kg/injection, schedule: Q04DX002 (ip), vehicle: saline 99 % of control | dose: 400.0 mg/kg/injection, schedule: Q04DX002 (ip), vehicle: saline 118 % of control

O=C(Nc1ccc(C(=O)O)cc1)Nc1cccc(C(F)(F)F)c1
inactive: [1] 93 % of control | [3] 87 % of control

O=c1[nH]cnc2nn(C3OC(CO)C(O)C3O)cc12 (stereo not drawn)
inactive: dose: 100.0 mg/kg/injection, schedule: Q01DX005 (ip), vehicle: saline 105 % of control | dose: 200.0 mg/kg/injection, schedule: Q01DX005 (ip), vehicle: saline 104 % of control

CCCCCCCCCCC(O)CN1CCN(c2ccc(C)cc2)CC1 (stereo not drawn)
inactive: dose: 12.5 mg/kg/injection, schedule: Q01DX009 (ip), vehicle: Klucel (hydroxypropylcellulose) (HPC) 90 % of control | dose: 25.0 mg/kg/injection, schedule: Q01DX009 (ip), vehicle: Klucel (hydroxypropylcellulose) (HPC) 90 % of control | dose: 50.0 mg/kg/injection, schedule: Q01DX009 (ip), vehicle: Klucel (hydroxypropylcellulose) (HPC) 89 % of control | [10] 94 % of control | [11] 101 % of control

NS(=O)(=O)c1ccc(Cl)c([N+](=O)[O-])c1
inactive: dose: 100.0 mg/kg/injection, schedule: Q04DX002 (ip), vehicle: saline with Tween-80 98 % of control | dose: 200.0 mg/kg/injection, schedule: Q04DX002 (ip), vehicle: saline with Tween-80 91 % of control | dose: 400.0 mg/kg/injection, schedule: Q04DX002 (ip), vehicle: saline with Tween-80 91 % of control

CCOC(=O)c1ccc(Nc2sc(C(=O)c3ccc(C)cc3C)c(N)c2C#N)cc1
inactive: dose: 100.0 mg/kg/injection, schedule: Q04DX002 (ip), vehicle: gum acacia 89 % of control | dose: 200.0 mg/kg/injection, schedule: Q04DX002 (ip), vehicle: gum acacia 92 % of control | dose: 400.0 mg/kg/injection, schedule: Q04DX002 (ip), vehicle: gum acacia 99 % of control
